pIC50: −log10 of the molar value.
Tests used:
[1] = Toxicity in BALB/c mouse xenografted with human MV4-11 cells assessed as animal's mortality at 7.5 to 15 mg/kg, iv qd; type: organism-based; conditions: in vivo, dose 7.5-15 mg/kg
[2] = system: MV4-11; assay: Induction of apoptosis in human MV4-11 cells assessed as increase in cleaved caspase 3 protein expression incubated for 24 hrs by western blot analysis; type: functional, cell-based; conditions: dose 0.1-4 µM
[3] = molecular target: Serine/threonine-protein kinase SIK3 (Homo sapiens) (UniProt Q9Y2K2); assay: Inhibition of wild type partial length human QSK (90 to 395 residues) expressed in mammalian expression system at 1 uM by KINOMEscan analysis
Serine/threonine-protein kinase SIK3 (Homo sapiens), sequence (Q9Y2K2 whole entry, looked up, the tested form may be a part): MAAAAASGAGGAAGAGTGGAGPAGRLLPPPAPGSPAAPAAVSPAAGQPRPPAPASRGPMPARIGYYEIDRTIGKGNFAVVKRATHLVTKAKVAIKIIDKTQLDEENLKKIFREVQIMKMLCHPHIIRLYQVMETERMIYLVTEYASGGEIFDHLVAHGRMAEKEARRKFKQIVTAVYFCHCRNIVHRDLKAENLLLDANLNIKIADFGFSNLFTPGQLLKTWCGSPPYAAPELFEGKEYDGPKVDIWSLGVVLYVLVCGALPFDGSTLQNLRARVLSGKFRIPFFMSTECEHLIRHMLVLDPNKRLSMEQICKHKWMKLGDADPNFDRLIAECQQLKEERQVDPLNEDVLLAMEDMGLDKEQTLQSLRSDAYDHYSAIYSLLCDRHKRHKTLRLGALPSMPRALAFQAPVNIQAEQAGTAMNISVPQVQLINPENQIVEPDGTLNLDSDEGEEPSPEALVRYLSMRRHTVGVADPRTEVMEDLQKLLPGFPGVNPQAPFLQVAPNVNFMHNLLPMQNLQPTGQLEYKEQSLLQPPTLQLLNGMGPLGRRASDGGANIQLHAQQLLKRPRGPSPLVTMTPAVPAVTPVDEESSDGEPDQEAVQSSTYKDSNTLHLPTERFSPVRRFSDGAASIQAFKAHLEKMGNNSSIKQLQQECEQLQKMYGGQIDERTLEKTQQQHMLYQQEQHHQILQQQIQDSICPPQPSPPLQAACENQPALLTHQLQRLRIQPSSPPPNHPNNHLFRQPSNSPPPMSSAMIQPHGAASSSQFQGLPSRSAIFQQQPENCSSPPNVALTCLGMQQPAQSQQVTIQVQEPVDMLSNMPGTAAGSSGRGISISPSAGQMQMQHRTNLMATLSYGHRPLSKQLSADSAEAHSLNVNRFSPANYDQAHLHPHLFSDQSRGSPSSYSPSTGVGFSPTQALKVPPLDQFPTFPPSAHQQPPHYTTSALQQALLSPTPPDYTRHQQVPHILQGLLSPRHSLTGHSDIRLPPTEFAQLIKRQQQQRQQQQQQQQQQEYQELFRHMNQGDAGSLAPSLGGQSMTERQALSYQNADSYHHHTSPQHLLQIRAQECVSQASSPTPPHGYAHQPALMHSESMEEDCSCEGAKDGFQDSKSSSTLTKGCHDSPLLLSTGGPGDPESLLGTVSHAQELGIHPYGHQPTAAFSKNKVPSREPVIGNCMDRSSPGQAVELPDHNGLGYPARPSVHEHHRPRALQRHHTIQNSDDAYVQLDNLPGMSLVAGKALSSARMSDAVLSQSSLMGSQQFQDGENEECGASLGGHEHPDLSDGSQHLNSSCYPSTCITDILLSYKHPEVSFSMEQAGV

[4] = molecular target: CDK9/cyclin T1 (Homo sapiens) (UniProt O60563+P50750); assay: Inhibition of CDK9/CyclinT1 (unknown origin) at 100 nM by ADP-Glo assay relative to control; type: protein-complex assay
[5] = system: MV4-11; assay: Induction of cell cycle arrest in human MV4-11 cells assessed as accumulation of cells at G0/G1 phase at 0.8 uM incubated fo 36 hrs by propidium iodide staining based flow cytometry (reference value: 64%); type: functional
[6] = system: MV4-11; assay: Induction of apoptosis in human MV4-11 cells assessed as early apoptotic cells at 0.5 uM incubated for 24 hrs by AnnexinV-FITC/PI staining based flow cytometry (reference value: 1.42%); type: functional
[7] = molecular target: Rho-associated protein kinase 2 (Homo sapiens) (UniProt O75116); assay: Inhibition of wild type partial length human ROCK2 (1 to 431 residues) expressed in mammalian expression system at 1 uM by KINOMEscan analysis
Rho-associated protein kinase 2 (Homo sapiens), sequence (O75116 whole entry, looked up, the tested form may be a part): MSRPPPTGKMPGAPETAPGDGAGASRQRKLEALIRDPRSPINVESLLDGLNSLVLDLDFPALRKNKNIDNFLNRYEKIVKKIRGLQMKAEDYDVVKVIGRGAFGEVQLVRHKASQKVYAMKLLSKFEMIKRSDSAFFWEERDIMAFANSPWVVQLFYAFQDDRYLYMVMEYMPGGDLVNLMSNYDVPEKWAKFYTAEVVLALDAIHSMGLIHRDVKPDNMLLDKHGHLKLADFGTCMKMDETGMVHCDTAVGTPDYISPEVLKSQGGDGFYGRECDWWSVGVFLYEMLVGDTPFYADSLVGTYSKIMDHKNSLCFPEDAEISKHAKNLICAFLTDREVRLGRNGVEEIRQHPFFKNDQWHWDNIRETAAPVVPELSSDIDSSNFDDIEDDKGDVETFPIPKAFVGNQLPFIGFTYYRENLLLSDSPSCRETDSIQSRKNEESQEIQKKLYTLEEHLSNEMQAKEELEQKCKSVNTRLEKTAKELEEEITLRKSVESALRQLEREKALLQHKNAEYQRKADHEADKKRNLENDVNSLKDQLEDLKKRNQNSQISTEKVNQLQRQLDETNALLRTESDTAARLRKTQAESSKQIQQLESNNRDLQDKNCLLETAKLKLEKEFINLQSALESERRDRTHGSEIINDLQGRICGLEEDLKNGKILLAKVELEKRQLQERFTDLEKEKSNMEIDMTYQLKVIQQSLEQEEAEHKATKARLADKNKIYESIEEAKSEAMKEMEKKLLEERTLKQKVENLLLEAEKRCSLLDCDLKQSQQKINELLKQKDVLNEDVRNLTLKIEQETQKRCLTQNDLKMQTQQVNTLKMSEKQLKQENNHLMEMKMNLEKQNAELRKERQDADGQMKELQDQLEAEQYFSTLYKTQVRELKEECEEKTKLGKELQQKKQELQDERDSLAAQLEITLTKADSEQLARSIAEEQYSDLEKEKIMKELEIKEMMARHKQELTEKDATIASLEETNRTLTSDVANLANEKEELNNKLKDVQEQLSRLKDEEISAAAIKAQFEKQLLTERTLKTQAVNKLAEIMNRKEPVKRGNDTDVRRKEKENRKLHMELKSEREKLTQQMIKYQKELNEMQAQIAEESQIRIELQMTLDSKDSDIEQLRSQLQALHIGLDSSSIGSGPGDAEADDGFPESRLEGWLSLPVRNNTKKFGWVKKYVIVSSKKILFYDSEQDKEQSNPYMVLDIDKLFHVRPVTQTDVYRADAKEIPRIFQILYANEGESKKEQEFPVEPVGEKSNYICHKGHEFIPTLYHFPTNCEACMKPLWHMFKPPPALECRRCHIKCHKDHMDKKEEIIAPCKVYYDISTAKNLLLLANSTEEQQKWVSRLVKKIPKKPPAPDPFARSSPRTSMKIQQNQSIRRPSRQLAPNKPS

[8] = system: MV4-11; assay: Induction of cell cycle arrest in human MV4-11 cells assessed as accumulation of cells at G0/G1 phase at 0.2 uM incubated fo 36 hrs by propidium iodide staining based flow cytometry (reference value: 64%); type: functional
[9] = system: MV4-11; assay: Induction of apoptosis in human MV4-11 cells assessed as early apoptotic cells at 4 uM incubated for 24 hrs by AnnexinV-FITC/PI staining based flow cytometry (reference value: 1.42%); type: functional
[10] = molecular target: Cyclin-dependent kinase 9 (Homo sapiens) (UniProt P50750); assay: Inhibition of CDK9 in human MV4-11 cells assessed as reduction in c-Myc protein expression incubated for 12 hrs by western blot analysis; type: cell-based; conditions: dose 0.1-4 µM
Cyclin-dependent kinase 9 (Homo sapiens), sequence (P50750 whole entry): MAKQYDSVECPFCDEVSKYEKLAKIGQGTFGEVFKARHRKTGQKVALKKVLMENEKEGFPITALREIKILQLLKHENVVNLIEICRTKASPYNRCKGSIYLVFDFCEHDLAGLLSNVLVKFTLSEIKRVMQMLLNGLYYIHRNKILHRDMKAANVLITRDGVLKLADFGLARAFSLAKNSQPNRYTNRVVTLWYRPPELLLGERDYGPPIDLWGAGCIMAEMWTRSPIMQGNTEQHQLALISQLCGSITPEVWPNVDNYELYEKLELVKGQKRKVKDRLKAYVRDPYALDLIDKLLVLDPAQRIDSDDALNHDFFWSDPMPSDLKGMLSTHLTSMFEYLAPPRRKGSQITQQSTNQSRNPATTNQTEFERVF

[11] = system: MV4-11; assay: Induction of apoptosis in human MV4-11 cells assessed as viable cells at 1 uM incubated for 24 hrs by AnnexinV-FITC/PI staining based flow cytometry (reference value: 93.4%); type: functional; conditions: read-out: Activity
[12] = system: MV4-11; assay: Induction of apoptosis in human MV4-11 cells assessed as viable cells at 4 uM incubated for 24 hrs by AnnexinV-FITC/PI staining based flow cytometry (reference value: 93.4%); type: functional; conditions: read-out: Activity
[13] = system: HCT-116; assay: Antiproliferative activity against human HCT-116 cells assessed as reduction in cell viability measured after 72 hrs; type: functional, cell-based; conditions: HCT-116, 72 h
[14] = system: MV4-11; assay: Downregulation of cyclin T1 protein expression in human MV4-11 cells incubated for 12 hrs by western blot analysis; type: functional, cell-based; conditions: dose 0.1-4 µM
[15] = system: MV4-11; assay: Induction of apoptosis in human MV4-11 cells assessed as late apoptotic cells at 1 uM incubated for 24 hrs by AnnexinV-FITC/PI staining based flow cytometry (reference value: 5.21%); type: functional
[16] = system: MV4-11; assay: Induction of apoptosis in human MV4-11 cells assessed as increase in cleaved PARP-1 protein expression incubated for 24 hrs by western blot analysis; type: functional, cell-based; conditions: dose 0.1-4 µM
[17] = system: MV4-11; assay: Induction of apoptosis in human MV4-11 cells assessed as necrotic cells at 1 uM incubated for 24 hrs by AnnexinV-FITC/PI staining based flow cytometry (reference value: 0%); type: functional
[18] = system: MV4-11; assay: Induction of apoptosis in human MV4-11 cells assessed as late apoptotic cells at 2 uM incubated for 24 hrs by AnnexinV-FITC/PI staining based flow cytometry (reference value: 5.21%); type: functional
[19] = system: MV4-11; assay: Induction of apoptosis in human MV4-11 cells assessed as late apoptotic cells at 0.1 uM incubated for 24 hrs by AnnexinV-FITC/PI staining based flow cytometry (reference value: 5.21%); type: functional
[20] = system: MV4-11; assay: Induction of apoptosis in human MV4-11 cells assessed as necrotic cells at 0.5 uM incubated for 24 hrs by AnnexinV-FITC/PI staining based flow cytometry (reference value: 0%); type: functional
[21] = system: MV4-11; assay: Induction of apoptosis in human MV4-11 cells assessed as viable cells at 0.5 uM incubated for 24 hrs by AnnexinV-FITC/PI staining based flow cytometry (reference value: 93.4%); type: functional; conditions: read-out: Activity
[22] = molecular target: CDK7/Cyclin H/MNAT1 (Homo sapiens, UniProt P50613); assay: Inhibition of CDK7/Cyclin H/MAT1 (unknown origin) by ADP-Glo assay; type: protein-complex assay
CDK7/Cyclin H/MNAT1, sequence (P51946 whole entry): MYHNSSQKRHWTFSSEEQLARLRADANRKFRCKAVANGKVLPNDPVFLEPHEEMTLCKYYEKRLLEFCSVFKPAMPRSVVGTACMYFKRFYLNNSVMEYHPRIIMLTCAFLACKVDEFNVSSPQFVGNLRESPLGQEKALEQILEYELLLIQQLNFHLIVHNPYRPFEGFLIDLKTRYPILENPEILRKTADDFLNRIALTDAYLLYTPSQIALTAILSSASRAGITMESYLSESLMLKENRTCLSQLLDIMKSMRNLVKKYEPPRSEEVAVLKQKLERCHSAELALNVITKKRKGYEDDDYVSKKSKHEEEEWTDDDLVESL
CDK7/Cyclin H/MNAT1, sequence (P50613 whole entry): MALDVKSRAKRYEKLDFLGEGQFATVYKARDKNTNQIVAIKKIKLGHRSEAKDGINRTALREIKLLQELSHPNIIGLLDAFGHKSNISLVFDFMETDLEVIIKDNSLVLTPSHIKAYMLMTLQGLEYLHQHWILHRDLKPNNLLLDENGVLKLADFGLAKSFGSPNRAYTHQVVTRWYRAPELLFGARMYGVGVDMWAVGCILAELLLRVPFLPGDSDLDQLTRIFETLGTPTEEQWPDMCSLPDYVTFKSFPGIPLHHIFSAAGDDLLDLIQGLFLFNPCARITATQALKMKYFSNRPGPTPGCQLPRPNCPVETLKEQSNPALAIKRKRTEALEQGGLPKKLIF
CDK7/Cyclin H/MNAT1, sequence (P51948 whole entry, further chain): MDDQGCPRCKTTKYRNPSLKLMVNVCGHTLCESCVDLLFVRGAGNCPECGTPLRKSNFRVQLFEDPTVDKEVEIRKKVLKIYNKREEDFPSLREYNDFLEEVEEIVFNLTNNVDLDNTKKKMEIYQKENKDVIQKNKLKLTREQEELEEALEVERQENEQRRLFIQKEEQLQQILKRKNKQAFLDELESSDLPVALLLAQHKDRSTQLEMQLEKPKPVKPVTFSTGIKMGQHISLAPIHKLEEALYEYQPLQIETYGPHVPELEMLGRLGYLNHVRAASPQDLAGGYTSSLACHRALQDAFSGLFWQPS

[23] = system: MV4-11; assay: Induction of cell cycle arrest in human MV4-11 cells assessed as accumulation of cells at G2/M phase at 0.2 uM incubated fo 36 hrs by propidium iodide staining based flow cytometry (reference value: 9.5%); type: functional
[24] = system: MOLM-13; assay: Antiproliferative activity against human MOLM-13 cells assessed as reduction in cell viability measured after 72 hrs; type: functional, cell-based; conditions: MOLM-13, 72 h
[25] = Metabolic stability of the compound in rat liver microsomes at 10 uM measured for 60 mins in presence of NADPH by LC-MS/MS analysis; type: ADME, Microsome; conditions: 1 h
[26] = system: BT-549; assay: Antiproliferative activity against human BT-549 cells assessed as reduction in cell viability measured after 72 hrs; type: functional, cell-based; conditions: BT-549, 72 h
[27] = system: MV4-11; assay: Induction of apoptosis in human MV4-11 cells assessed as early apoptotic cells at 0.1 uM incubated for 24 hrs by AnnexinV-FITC/PI staining based flow cytometry (reference value: 1.42%); type: functional
[28] = molecular target: Dual specificity mitogen-activated protein kinase kinase 5 (Homo sapiens) (UniProt Q13163); assay: Inhibition of wild type partial length human MEK5 (98 to 448 residues) expressed in mammalian expression system at 1 uM by KINOMEscan analysis
Dual specificity mitogen-activated protein kinase kinase 5 (Homo sapiens), sequence (Q13163 whole entry, the tested form may be a part): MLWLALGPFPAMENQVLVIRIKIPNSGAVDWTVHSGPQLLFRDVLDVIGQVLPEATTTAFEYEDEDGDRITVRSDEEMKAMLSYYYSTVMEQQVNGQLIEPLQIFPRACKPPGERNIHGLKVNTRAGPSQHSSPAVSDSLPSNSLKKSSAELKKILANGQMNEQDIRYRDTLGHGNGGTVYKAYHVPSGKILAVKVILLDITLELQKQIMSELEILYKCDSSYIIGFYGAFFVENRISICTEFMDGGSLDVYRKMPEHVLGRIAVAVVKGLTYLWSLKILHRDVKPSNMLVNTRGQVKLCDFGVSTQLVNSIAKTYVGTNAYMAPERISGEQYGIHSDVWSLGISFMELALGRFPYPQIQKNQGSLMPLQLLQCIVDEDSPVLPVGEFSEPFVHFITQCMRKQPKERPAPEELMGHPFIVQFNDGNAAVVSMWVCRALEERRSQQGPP

[29] = molecular target: CDK2/Cyclin A2 (Homo sapiens) (UniProt P24941+P20248); assay: Inhibition of CDK2/CyclinA2 (unknown origin) at 100 nM by ADP-Glo assay relative to control; type: protein-complex assay
[30] = system: MV4-11; assay: Antiproliferative activity against human MV4-11 cells assessed as reduction in cell viability measured after 72 hrs; type: functional, cell-based; conditions: MV4-11, 72 h
[31] = molecular target: Cyclin-dependent kinase 9 (Homo sapiens) (UniProt P50750); assay: Inhibition of CDK9 in human MV4-11 cells assessed as reduction in RNA polymerase 2 phosphorylation at Ser2 residue incubated for 12 hrs by western blot analysis; type: cell-based; conditions: dose 0.1-4 µM
[32] = system: SW480; assay: Antiproliferative activity against human SW480 cells assessed as reduction in cell viability measured after 72 hrs; type: functional, cell-based; conditions: SW480, 72 h
[33] = Metabolic stability of the compound in mouse liver microsomes at 10 uM measured for 60 mins in presence of NADPH by LC-MS/MS analysis; type: ADME, Microsome; conditions: 1 h
[34] = molecular target: CDK2/Cyclin A2 (Homo sapiens, UniProt P24941); assay: Inhibition of CDK2/CyclinA2 (unknown origin) by ADP-Glo assay; type: protein-complex assay
[35] = system: MV4-11; assay: Induction of apoptosis in human MV4-11 cells assessed as necrotic cells at 2 uM incubated for 24 hrs by AnnexinV-FITC/PI staining based flow cytometry (reference value: 0%); type: functional

With `COc1cc(O)c2c(=O)cc(-c3ccc(N4CCN(C)CC4)cc3)oc2c1C1=CCN(C)CC1` the Activity [1] was “Non-Toxic”, the Activity [2] was “Dose-Dependent Effect” and the inhibition [3] was 3.3%. For the same compound, the inhibition [4] was 98.9%, the Activity [5] was 84.2% and the Activity [6] was 1.96%. It also gave an inhibition [7] of 6%, an Activity [8] of 73.9% and an Activity [9] of 70.3%. The inhibition [10] was “Dose-Dependent Effect”, the viability at 1 µM [11] was 69.1% and the viability at 4 µM [12] was 7.98%. For the same compound, the pIC50 [13] was 7.70, the inhibition [14] was “Dose-Dependent Effect” and the Activity [15] was 20.9%. The Activity [16] was “Dose-Dependent Effect”, the Activity [17] was 0.01% and the Activity [18] was 29.8%. It also gave an Activity [19] of 6.98%, an Activity [20] of 0% and a viability at 0.5 µM [21] of 87.8%. For the same compound, the pIC50 [22] was 6.27, the Activity [23] was 7.1% and the pIC50 [24] was 6.80. For the same compound, the Stability [25] was “Stable”, the pIC50 [26] was 6.68 and the Activity [27] was 1.46%. For the same compound, the inhibition [28] was 0%, the inhibition [29] was 16.7% and the pIC50 [30] was 7.22. For the same compound, the inhibition [31] was “Dose-Dependent Effect”, the pIC50 [32] was 5.46 and the Stability [33] was “Stable”. For the same compound, the pIC50 [34] was 6.27 and the Activity [35] was 0.11%.

Source: ChEMBL document CHEMBL5634084, “Design and optimization of selective and potent CDK9 inhibitors with flavonoid scaffold for the treatment of acute myeloid leukemia” (Eur J Med Chem, 2023)
